In patent publication US20090253709A1 (NATIONAL DEFENSE MEDICAL CENTER, priority 2008, published 2009):
Where two headings read alike, the source gives them in different places.

How the values were obtained:
[1] = MTT assay in H1299 cells; format: cell-based; conditions: human, H1299 cells (H1299/PhTERT-driven SEAP reporter system), H1299, read-out: MTT (Inhibition μM ± SD); for viability at 24 h, 1 µM: compound concentration 1 μM; for viability at 24 h, 10 µM: compound concentration 10 μM; for viability at 24 h, 100 µM: compound concentration 100 μM
Procedure: H1299 is a non-small cell lung cancer cell line with telomerase activity. The cell extract of H1299 cell lines can be used for selecting the telomerase activity inhibitors in vitro and the telomerase activity-inhibited substances in vivo. H1299 cell line was incubated with RPMI 1640 medium supplemented with 10% of fetal bovine serum (FBS). A total of 2×10^3 […] cells were seeded in the 96-well cell culture plate, and incubated with DMEM (GIBCO®)/glucose mixture and Medium 199 (GIBCO®)/10% FBS/1 mM sodium pyruvate (GIBCO®)/4 mM L-glutamine (GIBCO®) mixture at a ratio of 4:1 at 37° C. for 24 hours. […] After 48 hours of drug treatment, the cultured medium were collected for performing the analysis of SEAP activity. The cells were washed with 1×PBS once immediately, and the MTT assay was performed to compare the compounds with the relative toxicity or the influence to the proliferation and activity. Mitochondria is the place for cellular respiration, and there are many reductive reactions catalyzed by dehydrogenases. MTT is a water-soluble yellow compound, and the […] will be formed after reduction. This crystal can be dissolved in the organic solvent, and has high absorbance at the wavelength of 570 nm. The higher cellular activity or more cell numbers, the more generated crystal violets. Therefore, the cellular activity and cell number can be obtained by the MTT assay. MTT solution was prepared by dissolving MTT powder in PBS solution to achieve 5 mg/ml, filtrated and stored at 4° C. Lysis buffer contained 20% (w/v) of SDS in 50% of N,N-dimethylformamide (DMF, Riedel-deHaën). After the cells were incubated in the 96-well culture plate, the original medium was discarded, 100 μl of the fresh serum-free medium per well and 25 μl of MTT solution per well were added in respectively, and the cells were further incubated in the CO2 incubator at 37° C. for 4 hours. Then, 100 μl of lysis buffer per well was added in and incubated overnight in the CO2 incubator at 37° C. The absorbance at 570 nm was determined by the ELISA reader. The selection of telomerase inhibitors of the anthraquinone compounds provided in the present invention was performed by the […]-driven SEAP system. SEAP is the communication gene in this drug selection model. The SEAP inhibition was shown as follows. […] Subsequently, the linear slope of absorbance to the measuring time was calculated, and the variance of absorbance at 405 nm per minute was represented and compared with the SEAP-producing result of drug-untreated H1299 cells. In addition, the influence of the cell-treated drug solution to the cellular proliferation and the drug toxicity to the cells were considered, and the cellular growth was evaluated by the MTT assay. The drug-treated cells were analyzed by the SEAP assay and the data analysis of MTT assay at the same time. Both results were compared so as to delete the influence of cell number or the activity to SEAP, and the dose-dependent phenomenon could be anticipated in the range of drug concentration designed by the laboratory. […] Since the chemically-synthetic drugs have colors thereon, the SEAP value of drug-treatment without cells was also determined to be the background value which was deducted while treating with the drugs. The candidate drug for inhibiting telomerase on the hTERT gene expression level was evaluated and anticipated.

[2] = test system: hTERT expression; experiment: SEAP assay, H1299/PhTERT-driven SEAP system; format: cell-based, human; conditions: Homo sapiens
Excerpt: The condition of the cells for selecting the telomerase inhibitor must be the cancer cells with telomerase activity. H1299 is a non-small cell lung cancer cell line with telomerase activity. The hTERT communication gene linked behind PhTERT which is located at the fifth chromosome of H1299 cell can be expressed; however, this expression is hard to detect. Therefore, the plasmid having the SEAP communication gene linked behind PhTERT was transfected into H1299 cells. Under the identical condition, after PhTERT was activated, the SEAP communication gene linked behind the plasmid was also activated. This gene could be detected by this analytic method while expressing.
If additionally added reagent can inhibit PhTERT, the linked SEAP communication gene will not be expressed, and the hTERT communication gene linked behind PhTERT at the fifth chromosome will not be expressed. […]
The cellular medium after the cellular incubation was transferred into the eppondorf tube, and the activity of endogeneous alkaline phosphatase was inactivated at 65° C. for 10 minutes. After centrification, the mixture was obtained by mixing 50 μl of the supernatant with the equal volume of the SEAP buffer. The mixture and the substrate (120 mM of p-nitrophenylphosphate) were preheated at 37° C. for 10 minutes respectively, and the mixture and the substrate were mixed at a ratio of 1:10 and reacted at 37° C. The absorbance of visible light at 405 nm was determined at the appropriate time intervals, and the enzymatic activity of SEAP was represented by the speed of the increasing absorbance at 405 nm.
The selection of telomerase inhibitors of the anthraquinone compounds provided in the present invention was performed by the H1299/PhTERT-driven SEAP system. SEAP is the communication gene in this drug selection model. The SEAP inhibition was shown as follows. The quantitative cellular medium obtained after the 24-hour drug-treatment and the identical inactivation was reacted with the quantitative SEAP substrate, and the absorbance at 405 nm was detected for 5 time intervals. Subsequently, the linear slope of absorbance to the measuring time was calculated, and the variance of absorbance at 405 nm per minute was represented and compared with the SEAP-producing result of drug-untreated H1299 cells. In addition, the influence of the cell-treated drug solution to the cellular proliferation and the drug toxicity to the cells were considered, and the cellular growth was evaluated by the MTT assay. The drug-treated cells were analyzed by the SEAP assay and the data analysis of MTT assay at the same time. Both results were compared so as to delete the influence of cell number or the activity to SEAP, and the dose-dependent phenomenon could be anticipated in the range of drug concentration designed by the laboratory.
In the preliminary selection, the highest concentration was 1000 μM, and 10-fold serial dilutions were done. Therefore, the final concentrations for treating cells were 1 μM, 10 μM and 100 μM, and the drug concentrations were repeated for 5 times. Since the chemically-synthetic drugs have colors thereon, the SEAP value of drug-treatment without cells was also determined to be the background value which was deducted while treating with the drugs. The candidate drug for inhibiting telomerase on the hTERT gene expression level was evaluated and anticipated.

[3] = NCI-H1299, read-out: SEAP (Inhibition μM ± SD)
[4] = NCI-H1299, H1299, compound concentration 1 μM, read-out: SEAP (Inhibition μM ± SD)
[5] = NCI-H1299, H1299, compound concentration 10 μM, read-out: SEAP (Inhibition μM ± SD)
[6] = NCI-H1299, H1299, compound concentration 100 μM, read-out: SEAP (Inhibition μM ± SD)

Row | SMILES | viability at 24 h, 1 µM [1] [%] | viability at 24 h, 10 µM [1] [%] | viability at 24 h, 100 µM [1] [%] | activity at 1 µM [2, 3] [%] | activity at 10 µM [2, 3] [%] | activity at 100 µM [2, 3] [%] | activity at 1 µM [2, 4] [%] | activity at 10 µM [2, 5] [%] | activity at 100 µM [2, 6] [%]
1 | CC(C)NCC(=O)Nc1ccc2c(c1)C(=O)c1cc(NC(=O)CNC(C)C)ccc1C2=O [Compound 13, 2,7-Bis[2-(isopropylamino)acetamido]anthraquinone] | 78 ± 10 | 26 ± 15 | 6 ± 11 | 73 ± 31 | 28 ± 18 | 21 ± 16 | – | – | –
2 | CC(C)CNCC(=O)Nc1ccc2c(c1)C(=O)c1cc(NC(=O)CNCC(C)C)ccc1C2=O [Compound 14, 2,7-Bis[2-(isobutylamino)acetamido]anthraquinone] | 108 ± 8 | 39 ± 10 | 11 ± 5 | – | – | – | 73 ± 20 | 38 ± 15 | 26 ± 10
3 | O=C(CCCl)Nc1ccc2c(c1)C(=O)c1cc(NC(=O)CCCl)ccc1C2=O [Compound 15, 2,7-Bis(3-chloropropionamido)anthraquinone] | 77 ± 13 | 44 ± 15 | 29 ± 11 | – | – | – | 94 ± 11 | 94 ± 7 | 87 ± 9
4 | CCN(CC)CCC(=O)Nc1ccc2c(c1)C(=O)c1cc(NC(=O)CCN(CC)CC)ccc1C2=O [Compound 16, 2,7-Bis[3-(diethylamino)propionamido]anthraquinone] | 106 ± 15 | 41 ± 20 | 1 ± 1 | – | – | – | 76 ± 19 | 35 ± 17 | 26 ± 11
5 | CCCCNCCC(=O)Nc1ccc2c(c1)C(=O)c1cc(NC(=O)CCNCCCC)ccc1C2=O [Compound 17, 2,7-Bis[3-(butylamino)propionamido]anthraquinone] | 82 ± 12 | 52 ± 4 | 14 ± 10 | – | – | – | 56 ± 14 | 33 ± 9 | 22 ± 17
6 | O=C(CCN1CCCC1)Nc1ccc2c(c1)C(=O)c1cc(NC(=O)CCN3CCCC3)ccc1C2=O [Compound 18, 2,7-Bis[3-(pyrrolidino)propionamido]anthraquinone] | 87 ± 15 | 54 ± 7 | 12 ± 10 | – | – | – | 73 ± 11 | 29 ± 15 | 17 ± 13
7 | O=C(CCN1CCCCC1)Nc1ccc2c(c1)C(=O)c1cc(NC(=O)CCN3CCCCC3)ccc1C2=O [Compound 19, 2,7-Bis[3-(piperidino)propionamido]anthraquinone] | 87 ± 15 | 44 ± 7 | 18 ± 9 | – | – | – | 55 ± 23 | 33 ± 8 | 25 ± 10
8 | CN(C)CCC(=O)Nc1ccc2c(c1)C(=O)c1cc(NC(=O)CCN(C)C)ccc1C2=O [Compound 20, 2,7-Bis[3-(dimethylamino)propionamido]anthraquinone] | 1 ± 104 | 53 ± 13 | 1 ± 1 | 5 ± 94 | 13 ± 30 | – | – | – | –
9 | CCCNCCC(=O)Nc1ccc2c(c1)C(=O)c1cc(NC(=O)CCNCCC)ccc1C2=O [Compound 21, 2,7-Bis[3-(propylamino)propionamido]anthraquinone] | 80 ± 15 | 50 ± 6 | 13 ± 10 | – | – | – | 52 ± 13 | 22 ± 14 | 13 ± 15
10 | CCNCCC(=O)Nc1ccc2c(c1)C(=O)c1cc(NC(=O)CCNCC)ccc1C2=O [Compound 22, 2,7-Bis[3-(ethylamino)propionamido]anthraquinone] | 86 ± 10 | 59 ± 3 | 34 ± 7 | 68 ± 29 | 33 ± 24 | 22 ± 13 | – | – | –
11 | CN1CCN(CCC(=O)Nc2ccc3c(c2)C(=O)c2cc(NC(=O)CCN4CCN(C)CC4)ccc2C3=O)CC1 [Compound 23, 2,7-Bis[3-(N-methylpiperazino)propionamido]anthraquinone] | 95 ± 18 | 80 ± 15 | 39 ± 6 | – | – | – | 75 ± 16 | 52 ± 11 | 21 ± 10
12 | O=C(CCN1CCNCC1)Nc1ccc2c(c1)C(=O)c1cc(NC(=O)CCN3CCNCC3)ccc1C2=O [Compound 24, 2,7-Bis[3-(piperazino)propionamido]anthraquinone] | 97 ± 8 | 94 ± 8 | 102 ± 13 | – | – | – | 75 ± 26 | 71 ± 21 | 71 ± 15
